Values quoted from earlier work in publication PMC8847371 (Nature Communications, 2022).

What was measured:
SARS-CoV-2 VoC = conditions: cited from earlier work
COVID-19 [1] = test system: COVID-19; set-up: method as in MOVe-OUT trial (NCT04575597); conditions: phase 3, high-risk patients with mild to moderate COVID-19; ref MOVe-OUT trial (NCT04575597); cited from earlier work
SARS-CoV-2 = conditions: cited from earlier work
COVID-19 [2] = test system: COVID-19; set-up: method as in recent press release; conditions: early administration, high risk patients with mild to moderate symptoms; ref recent press release; cited from earlier work

Row | Compound | in vitro potency against the four VOC (SARS-CoV-2 VoC) | risk of hospitalization or death (COVID-19 [1]) | efficacy in the SARS-CoV-2 hamster infection model (SARS-CoV-2) | reduction of likelihood of hospitalization (COVID-19 [2]) [%]
1 | CC(C)C(=O)OC[C@H]1O[C@@H](n2ccc(NO)nc2=O)[C@H](O)[C@@H]1O [Molnupiravir] | equipotent | significant reduction | effective | 
2 | CCC(CC)COC(=O)[C@H](C)N[P@](=O)(OC[C@H]1O[C@@](C#N)(c2ccc3c(N)ncnn23)[C@H](O)[C@@H]1O)Oc1ccccc1 [Veklury] |  |  |  | 87
